US20250009924A1, “Indane Derivatives for Malodor Counteraction” (Firmenich SA, priority 2015, published 2025)

Columns and labels:
[1] = system: indole-responsive olfactory sensory neurons; experiment: Ca2+ imaging of olfactory sensory neurons, antagonist screening against indole; assay type: cell-based; details: 25 μM indole + 125 μM MOC compound as binary mixture; percentage of malodor-responsive OSN population inhibited by more than 10% (modulation values less than −10%)
Experimental: (§1) Identification of malodor-sensitive olfactory neurons was performed as previously described in WO 2014/210582. Identification of antagonist compounds that inhibit the response of malodor-sensitive olfactory neurons to the target malodor was performed according to Kajiya et al (2001) (K. Kajiya, et al in The Journal of Neuroscience, (2001) 21, 6018-6025).
(§2) Olfactory sensory neurons were stimulated with 25 μM indole (MO) and 125 μM MOC either alone or as a binary mixture. By comparing the peak value of the calcium-induced fluorescence ratio change induced by exposure to the target MO compound to that of the mixture of MO+MOC candidate, a “modulation value” was calculated. The larger the difference between the two peak values, the greater the magnitude of the modulation value. If the peak value for the MO was larger than that of the MO+MOC, the modulation value was negative, whilst the inverse produced positive modulation values. A modulation value was calculated for each cell responding to the positive-control stimulus forskolin (Pos) and the MO compound, but not to the negative-control buffer stimulus (Neg). For each candidate MOC compound, a baseline ‘modulation value’ was obtained by repeated stimulations of olfactory neurons with indole alone (left box plot in B, D, F). The percentage of target malodor-responsive cells with negative modulation values less than −10% was plotted on a bar chart. Population data are represented as box plots, where the interquartile range (25-75th percentiles) of olfactory sensory neuron modulation is contained within the box, with the median indicated by the black bar and the 95th percentile by the arms.
Olfactory sensory neurons were stimulated with 25 μM indole malodor and 125 μM candidate MOC compound as a binary mixture.

[2] = Air dilution olfactometry sensory panel, indole vs indole + compound; assay type: in vivo, human; design: key to Freshness score: linear labeled scale, no freshness to very fresh; key to Animal/Fecal/Tar score: linear labeled scale, no to very animal/fecal/tar; key to Pleasantness score: linear labeled scale, very unpleasant to very pleasant; details: for Freshness score / Pleasantness score / Animal/Fecal/Tar score: indole + compound at individualized iso-intense concentrations; for Freshness score: indole alone 2.2 ± 0.2; for Pleasantness score: indole alone 2.6 ± 0.2; for Animal/Fecal/Tar score: linear labeled scale, indole alone 6.9 ± 0.2; for Animal/Fecal/Tar Reduction: indole + compound vs indole alone, iso-intense levels
Experimental: Air dilution olfactometry was used to measure all psychophysical data of individual and mixed odorants. Odorized flows of air with precisely set concentrations were prepared by the evaporation of a known flux of odorant in a determined flow of air. The flux of odorant was delivered through a microsyringe operated by a calibrated micromotor into a heated vessel under a steady nitrogen flow. The odorant was vaporized and swept away by the nitrogen, and this primary flow was later diluted with humidified air to the desired concentration. Odorants can be presented one by one in olfactometers (see as a reference “Multidimensional visualization of physical and perceptual data leading to a creative approach in fragrance development”, C. Vuilleumier, M. van de Waal, H. Fontannaz, I. Cayeux and P. A. Rebetez, in Perfumer & Flavourist, 33, 55 (2008)); alternatively, a machine blending up to 12 flows of odorants in variable and adjustable proportions could be used. A sniffing outlet delivered a continuous and adjustable odorized air flow. The upper working limit was determined by the vapor pressure of the odorants at room temperature. The odorized flow was delivered at a temperature of 26° C., close to the temperature within the nose. The combination of air (540 l/h) and nitrogen (60 l/h) represented a total gas flow of 600 l/h with a relative humidity of 50%. The speed of injection of the solutions in the evaporation chamber was modulated and controlled for each subject and adjusted to obtain a medium perceived intensity (see above reference, for instance FIG. 4).
Standardized psychophysical procedures were used to determine olfactory detection thresholds (triangle testing) or perceived intensity, after a training period (see above reference).
A method was designed as an iterative process to obtain dose-response relationship and odor detection threshold of perfumery ingredients or malodorants with a minimum number of experiments (see FIG. 5 in the above reference).
FIG. 2 reports the radar plot of indole alone and indole+compound 1 obtained with a panel of 13 persons using a sensory protocol to evaluate the potential antagonists versus indole. The protocol involves two steps: • Step 1: the participants evaluated the tested ingredients and indole independently to adjust their individualized concentrations by changing the rate of injection (see above description and reference) to elicit a medium intensity perception for each chemical. These concentrations, corresponding to iso-intense levels, were applied in the second step of the process. The range of concentrations to be submitted to subjects was determined from dose-response relationships for the selected ingredients and indole. In the present experiment the molar ratio Compound 1/indole varied according to the individuals from about 1/1 to 10/1 (typical preferred individual range is between 2.5/1 and 4.5/1). • Step 2: Blind sensory evaluations were set; no information was disclosed to the participants on the submitted odorous stimuli. The subjects had to evaluate first indole alone at its individualized concentration and rate the following three descriptors on a linear labeled scale: • Pleasantness (From «Very unpleasant» to «Very pleasant») • Freshness (From «No Freshness» to «Very fresh») • Malodor character: Animal/Fecal/Tar (From «No . . . » to «Very . . . »)
The next submission, 30 seconds after the previous one to avoid odor adaptation, involved the simultaneous injection of indole and of the tested ingredient at individualized concentrations. The same descriptors were rated.

[3] = system: Skatole OSNs (olfactory sensory neurons); experiment: Ca2+ imaging of olfactory sensory neurons, antagonist screening against skatole; assay type: cell-based; details: 50 μM skatole + 250 μM MOC compound as binary mixture; percentage of malodor-responsive OSN population inhibited by more than 10%
Experimental: as §1, §2
Olfactory sensory neurons were stimulated with 50 μM skatole malodor and 250 μM candidate MOC compound as a binary mixture.

[4] = system: DMTS OSNs (olfactory sensory neurons); experiment: Ca2+ imaging of olfactory sensory neurons, antagonist screening against dimethyl trisulfide (DMTS); assay type: cell-based; details: 50 μM DMTS + 250 μM MOC compound as binary mixture; percentage of malodor-responsive OSN population inhibited by more than 10%
Experimental: as §1, §2
Olfactory sensory neurons were stimulated with 50 μM DMTS malodor and 250 μM candidate MOC compound as a binary mixture.

[5] = Binary mixtures of lily-of-the-valley odorants with malodor, perception of fecal and animal note; details: the fecal and animal note remains clearly perceptible

| Structure (SMILES) | Proportion of Indole OSNs [1] [%] | Freshness score [2] | Pleasantness score [2] | Animal/Fecal/Tar score [2] | Animal/Fecal/Tar Reduction [2] [percentage] | also measured |
| --- | --- | --- | --- | --- | --- | --- |
| Cc1ccc2c(c1)CC(CO)C2 (stereo not drawn) [Compound 4, (5-methyl-2,3-dihydro-1H-inden-2-yl)methanol] | 41 | 6.6 ± 1.5 | 7.2 ± 1.2 | 2.1 ± 1.1 | 70 |  |
| Cc1cccc2c1CC(C)(CO)C2 (stereo not drawn) [Compound 15, 2,4-dimethyl-2-indanmethanol] | 17 |  |  |  |  |  |
| CC(C)c1ccc2c(c1)CC(C)(CO)C2 (stereo not drawn) [Compound 12, 5-isopropyl-2-methyl-2-indanmethanol] | 57 |  |  |  |  |  |
| Cc1ccc2c(c1)CC(C)(CO)C2 (stereo not drawn) [Compound 1, 2,5-dimethyl-2-indanemethanol] | 56 | 6.7 ± 0.9 | 7.8 ± 0.7 | 1.3 ± 0.5 | 81 | Proportion of Skatole OSNs [3]: 82%; Proportion of DTMS OSNs [4]: 69% |
| COc1ccc2c(c1)CC(C)(CO)C2 (stereo not drawn) [Compound 17, (5-methoxy-2-methyl-2,3-dihydro-1H-inden-2-yl)methanol] | 23 |  |  |  |  |  |
| Cc1cc(C)c2c(c1)CC(C)(CO)C2 (stereo not drawn) [Compound 16, (2,4,6-trimethyl-2,3-dihydro-1H-inden-2-yl)methanol] | 14 | 6.2 ± 1.6 | 6.4 ± 1.3 | 2.6 ± 1.4 | 62 |  |
| CCC1(CO)Cc2ccc(C)cc2C1 (stereo not drawn) [Compound 11, 2-ethyl-5-methyl-2-indanmethanol] | 35 |  |  |  |  |  |
| CC(C=O)Cc1ccc(C(C)(C)C)cc1 (stereo not drawn) [3-(4-tert-butylphenyl)-2-methylpropanal] |  |  |  |  |  | malodor reduction (reduction of the negative odor character) [5]: fail to produce such malodor reduction |
| CC(C)(C)c1ccc(CCC=O)cc1 [3-(4-tert-butylphenyl)propanal] |  |  |  |  |  | malodor reduction (reduction of the negative odor character) [5]: fail to produce such malodor reduction |
| Cc1ccc2c(c1C)CC(C)(CO)C2 (stereo not drawn) [Compound 9, (2,4,5-trimethyl-2,3-dihydro-1H-inden-2-yl)methanol] | 78 |  |  |  |  |  |
| Cc1cc2c(cc1C)CC(C)(CO)C2 [Compound 14, 2,5,6-trimethyl-2-indanmethanol] | 20 |  |  |  |  |  |
| COCC1(C)Cc2ccc(C)cc2C1 (stereo not drawn) [Compound 2, (2,5-dimethyl-2,3-dihydro-1H-inden-2-yl)methyl methyl ether] | 43 | 4.7 ± 1.3 | 3.9 ± 0.8 | 3.5 ± 1.5 | 50 |  |
| CC1(CO)Cc2ccccc2C1 [Compound 3, (2-methyl-2,3-dihydro-1H-inden-2-yl)methanol] | 41 | 5.2 ± 1.5 | 6.0 ± 1.4 | 3.1 ± 1.3 | 55 |  |
| CC1(C)CCc2ccc(CCC=O)cc21 [3-(3,3-dimethyl-2,3-dihydro-1h-inden-5-yl)propanal] |  |  |  |  |  | malodor reduction (reduction of the negative odor character) [5]: fail to produce such malodor reduction |
| CCc1ccc2c(c1)CC(C)(CO)C2 (stereo not drawn) [Compound 8, 5-ethyl-2-methyl-2-indanmethanol] | 30 |  |  |  |  |  |
| CC(=O)OCC1(C)Cc2ccc(C)cc2C1 (stereo not drawn) [Compound 10, (2,5-dimethyl-2-indanyl)methyl acetate] | 42 |  |  |  |  |  |
| Cc1ccc2c(c1)CCC(C)(CO)C2 (stereo not drawn) [Compound 7, (2,6-dimethyl-1,2,3,4-tetrahydro-2-naphthalenyl)methanol] | 54 |  |  |  |  |  |
| CC1(CO)Cc2ccc(C(C)(C)C)cc2C1 (stereo not drawn) [Compound 13, 5-tert-butyl-2-methyl-2-indanmethanol] | 54 |  |  |  |  |  |
| CC(=O)C1(C)Cc2ccc(C)cc2C1 (stereo not drawn) [Compound 6, 1-(2,5-dimethyl-2,3-dihydro-1H-inden-2-yl)ethanone] | 69 | 5.2 ± 1.6 | 5.8 ± 1.4 | 2.2 ± 1.2 | 68 | Proportion of Skatole OSNs [3]: 92%; Proportion of DTMS OSNs [4]: 94% |
| CC(=O)OCC1(C)Cc2ccccc2C1 [Compound 5, (2-methyl-2,3-dihydro-1H-inden-2-yl)methyl acetate] | 77 | 5.2 ± 1.2 | 5.7 ± 1.1 | 2.7 ± 1.0 | 61 | Proportion of Skatole OSNs [3]: 87%; Proportion of DTMS OSNs [4]: 82% |
